Results: article PMC6934184, “Selective DNA-PKcs inhibition extends the therapeutic index of localized radiotherapy and chemotherapy” (The Journal of Clinical Investigation, 2019)

Biological target: T1, MAPK1 (ERK2) (Homo sapiens, UniProt P28482)
T1 construct: purchased Thermo Fisher Scientific (Life Technologies) SelectScreen
Assay: SelectScreen Z'LYTE
Format: biochemical
Summary of the method: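 SelectScreen broad panel; activity (Z'LYTE, Adapta) plus binding formats. ATP: Km app for CSF1R Z'LYTE; 10 for CAMK1 Adapta. Readout = % per kinase.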

T1 sequence (P28482 whole entry): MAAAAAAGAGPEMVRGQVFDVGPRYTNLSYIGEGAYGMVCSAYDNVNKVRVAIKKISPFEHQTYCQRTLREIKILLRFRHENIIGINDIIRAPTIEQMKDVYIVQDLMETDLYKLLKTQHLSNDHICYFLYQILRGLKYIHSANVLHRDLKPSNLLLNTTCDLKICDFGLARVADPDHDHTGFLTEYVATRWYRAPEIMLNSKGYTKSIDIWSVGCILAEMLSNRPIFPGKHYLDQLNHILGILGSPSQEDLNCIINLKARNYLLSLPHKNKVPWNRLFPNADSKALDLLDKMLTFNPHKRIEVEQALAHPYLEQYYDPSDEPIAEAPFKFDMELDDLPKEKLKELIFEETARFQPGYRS

`CN(C(=O)CN1CCOCC1)c1ccc2sc3c(-c4cccc5c(=O)cc(N6CC7CCC(C6)O7)oc45)cccc3c2c1` [NU5455] was tested, and the inhibition at 1 µM was 10.1%.
